According to patent US9546193B2, “Compositions and methods for 18F-fluorodeoxyglycosylamines” (The Regents of the University of California, priority 2013, dated 2017):
Read-outs that look alike come from different tables or passages of the source. Values belong to the molecule of their own block, whether it stands above or below them.

Experiments:
Format in all cases: binding
[1] = tested on: postmortem human brain Aβ-amyloid sites
Text: (§1) The brain sections were air dried, exposed overnight on a phosphor film, and then placed on the Phosphor Autoradiographic Imaging System/Cyclone Storage Phosphor System (Packard Instruments Co).
as §1

[2] = tested on: human Aβ-amyloid plaques; test: 3H-PIB competition autoradiography on postmortem AD brain sections; conditions: 10 μM competitor; postmortem AD human brain slices; preliminary studies
Method: ^3H-PIB Binding: Human hippocampus sections (7 μm thick) were preincubated in 10% alcohol PBS buffer for 10 minutes. The brain sections were placed in a glass chamber and incubated with [^3H]-PIB (2 μCi/cc) in 10% alcohol PBS buffer, pH 7.4 at 37° C. for 1 hr. The slices were then washed with cold 10% alcohol PBS buffer (2×3 mins), cold deionized water 1 min, respectively. The brain sections were air dried, exposed overnight on a phosphor film, and then placed on the Phosphor Autoradiographic imaging System/Cyclone Storage Phosphor System (Packard Instruments Co). Regions of interest (ROIs) were drawn on the slices and the extent of binding of ^3H-PIB was measured with DLU/mm2 using the OptiQuant acquisition and analysis program (Packard Instruments Co).
Since FDGBTA is an analog of PIB, which is known to bind to human Aβ-amyloid plaques, the inventors tested competition of both PIB and FDGBTA with postmortem human brain Aβ-amyloid sites labeled with ^3H-PIB as is illustrated in Panel A of FIG. 5, with the corresponding photomicrographs in Panel B of FIG. 5.

[3] = tested on: Aβ-Amyloid plaques; test: Human brain homogenate assay, displacement of 3H-PIB; conditions: 3H-PIB displacement curve; rFDGBTA 10^−11 to 10^−4 M; PBS buffer, 10% alcohol, pH 7.4
Method: rFDGBTA: Reductive amination was carried out at room temperature using an anhydrous solution of molecular sieves, methanol and acetic acid. The yield for the reduced rFDGBTA was 94%. Human brain homogenate assay of rFDGBTA for Aβ-Amyloid plaques was investigated. The homogenate was suspended in different concentrations of rFDGBTA (10^−11 to 10^−4M) in the assay buffer (PBS buffer, 10% alcohol, pH 7.4). Nonspecific binding was determined by including […]. Total assay volume was 0.25 ml.

Molecule: 2-^18F-Fluorodeoxyglucose [18F-FDG]
- binding to AD brain grey matter / Aβ-amyloid plaques (in words) [1]: did not exhibit any binding

Molecule: [11CH3]Nc1ccc(-c2nc3ccc(O)cc3s2)cc1 [11C-PIB]
- binding to AD brain grey matter / Aβ-amyloid plaques (in words) ([1]; postmortem AD human brain sections, autoradiography): significant binding
- ratio of binding, AD brain versus control subjects (grey matter) ([1]; postmortem human hippocampus sections, autoradiography): 6

- reduction of 3H-PIB binding in the grey matter areas [2]: 80%
Molecule: OCC1OC(Nc2ccc(-c3nc4ccc(O)cc4s3)cc2)C(F)C(O)C1O (centres unmarked) [FDGBTA]

- binding compared to PIB (times weaker) [3]: ~100 times
Molecule: OCC(O)C(O)C(O)C(F)CNc1ccc(-c2nc3ccc(O)cc3s2)cc1 (centres unmarked) [rFDGBTA]
